Results from patent publication US20060008864A1, “Methods to measure compound specificity” (priority 2004, published 2006).
Counter-ions that a name gives are not always drawn. Like-named read-outs stand apart in the source and are kept apart here.

Assays:
[1] = system: HeLa CCT (cancer cell tubulin); assay: Fluorescence (DAPI) tubulin polymerization microassay, HeLa cancer cell tubulin; type: biochemical; details: for Tubulin Ligand Index (TLI) ratio, HeLa: BBT EC50 divided by HeLa CCT EC50; for EC50: 2 mg/ml tubulin, enhancer format without glycerol, 50% of 20% glycerol control Vmax, read-out: EC50 using HeLa CCT
From the text: (§1) A plot of log10 of concentration (X-axis) and Percent Vmax (control) (Y-axis) is made for each compound.

[2] = system: MCF-7 CCT (cancer cell tubulin); assay: Fluorescence (DAPI) tubulin polymerization microassay, MCF-7 cancer cell tubulin; details: BBT EC50 divided by MCF-7 CCT EC50
Description: Compounds were assayed in the standard glycerol containing (vinblastine and colchicine) or no glycerol containing (paclitaxel) formats. […] Twenty four micrograms of CCT in G-PEM with 10 uM DAPI plus glycerol (colchicine and vinblastine) or minus glycerol (paclitaxel) at 4° C. was pipetted into wells of the 384-well plate which contained 1.3 ul of 10× strength compound concentration and incubated at 37° C. Tubulin polymerization was detected by measuring the fluorescence of the solution (Ex 360 nm, Em 405 nm) over time. Each set of data, A through I, represents six duplicate polymerization assays from one experiment, the duplicates contain either a 20% glycerol control or one of five compound concentrations (0.1, 0.3, 1.0, 3.0 or 10 uM). Paclitaxel experiments were repeated n=3 for neuronal, n=5 for HeLa and n=2 for MCF-7. Vinblastine experiments were repeated n=2 for neuronal, n=5 for HeLa and n=2 for MCF-7. Colchicine experiments were repeated n=2 for neuronal, HeLa and MCF-7. […]
Using the conditions described in FIG. 9, we measured eleven taxol analogs against BBT and MCF-7 CCT. TLI's were calculated by the method described in FIG. 11. […]
A fluorescent plate reader is tuned to 360 nm excitation wavelength and 405 to 475 nm emission wavelength, a 384 well plate was placed into the machine and it was pre-warmed to 37° C.

[3] = biological target: Bovine brain tubulin (mainly isotypes βII and βIII); details: cited from earlier work
[4] = system: Bovine brain tubulin (BBT, neuronal tubulin); assay: Fluorescence (DAPI) tubulin polymerization microassay, bovine brain tubulin; type: biochemical; details: 2 mg/ml tubulin, enhancer format without glycerol; 50% of 20% glycerol control Vmax; read-out: EC50 using neuronal tubulin
From the text: as §1

[5] = system: HeLa CCT (cancer cell tubulin); details: BBT IC50 divided by HeLa CCT IC50; IC50 estimated from 50% intercept of dose response curve; cited from earlier work

Compound | Tubulin Ligand Index (TLI) ratio, HeLa [1] | EC50 [1] [nM] | EC50 [4] [nM] | Tubulin Ligand Index (TLI), BBT vs HeLa CCT, measured by Zentaris GmbH [5] | other results
CC(=O)O[C@@]12CO[C@@H]1C[C@H](O)[C@@]1(C)C(=O)[C@H](O)C3=C(C)[C@@H](O)C[C@@](O)([C@@H](OC(=O)c4ccccc4)[C@H]21)C3(C)C [10-Deacetyl-baccatin-III] | < 0.01 | – | – | – | Tubulin Ligand Index (TLI) ratio, MCF-7 [2]: 0.28
N=C(N)c1ccc(-c2cc3ccc(C(=N)N)cc3[nH]2)cc1 [DAPI, 4′, 6-diamidino-2-phenylindole-HCl] | – | – | – | – | Kd ([3]; bovine brain tubulin in the monomer form, read-out: Kd (affinity constant) for DAPI, monomer form): 43000 nM; Kd ([3]; bovine brain tubulin in the polymer form, read-out: Kd (affinity constant) for DAPI, polymer form): 6000 nM
CC(=O)O[C@@]12CO[C@@H]1C[C@H](O)[C@@]1(C)C(=O)[C@H](O)C3=C(C)[C@@H](OC(=O)[C@H](O)[C@@H](NC(=O)OC(C)(C)C)c4ccccc4)C[C@@](O)([C@@H](OC(=O)c4ccccc4)[C@H]21)C3(C)C [docetaxel] | 0.93 | 150 | 140 | – | –
CC(=O)O[C@H]1C(=O)[C@@]2(C)[C@H]([C@H](OC(=O)c3ccccc3)[C@]3(O)C[C@H](OC(=O)[C@H](O)[C@@H](NC(=O)c4ccccc4)c4ccccc4)C(C)=C1C3(C)C)[C@]1(OC(C)=O)CO[C@@H]1C[C@@H]2O [paclitaxel] | – | 790 | 150 | – | –
CC[C@]1(O)C[C@@H]2CN(CCc3c([nH]c4ccccc34)[C@@](C(=O)OC)(c3cc4c(cc3OC)N(C)[C@H]3[C@@](O)(C(=O)OC)[C@H](OC(C)=O)[C@]5(CC)C=CCN6CC[C@]43[C@@H]65)C2)C1 [vinblastine] | – | – | – | 1.0 | –
Disorazol E1 | – | – | – | 2.0 | –
